Source: PubChem BioAssay AID1259420 (Broad Institute, 2018)
Several values for one entry are separate records, joined by “and”; a condition that tells them apart may be missing. Equal entries are not always repeated. Results filed as inconclusive are left out. Activity calls are given as the source filed them. How the calls were made is not given here.

Each compound was assayed on Toxoplasma gondii growth in host cells, no IFN-gamma (assay: compound activity on host-cell Toxoplasma growth – dose response (AID 1259420);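 further: host cells were HeLa; final incubation lasted 72 hours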).
`Cc1cc(C)cc(S(=O)(=O)N2CCC3(CC2)NCCN=C3NCc2ccc(C(F)(F)F)cc2)c1` showed an AC50 of 18.7 µM. `CN1c2ccc(-c3ccccc3)cc2[C@H]2[C@H](CCN2C(=O)CC2CC2)[C@@H]1CO` was tested, and the AC50 was 25.4 µM. In the case of `COc1ccccc1-c1ccc(C2[C@H]3CNC[C@@H]2N3S(=O)(=O)c2ccc(F)cc2)cc1` (stereo not given in full), the AC50 is reported as > 20 µM (inactive). Compound `COc1ccccc1NC(=O)N1C[C@@H]2N[C@H](C1)C2c1ccc(/C=C/c2ccccc2)cc1` (stereo not given in full) has an AC50 of 6.68 µM. With `COc1ccc(S(=O)(=O)N2CCCCN3[C@H](CO)[C@@H](c4ccc(C#CCC(C)C)cc4)[C@H]3C2)cc1` the AC50 was 12.8 µM and 7.95 µM. Work on `Cc1cccc(S(=O)(=O)N2CC[C@@H]3[C@H](CO)Nc4ccc(-c5ccccc5F)cc4[C@@H]32)c1` yielded an AC50 of 17.2 µM. Compound `N#Cc1ccc(-c2ccc3c(c2)[C@@H]2[C@@H](CCN2C(=O)C2CCCCC2)[C@H](CO)N3)cc1` has an AC50 of 18 µM. `N#Cc1cccc(-c2ccc3c(c2)[C@H]2[C@H](CCN2Cc2ccc4c(c2)OCO4)[C@H](CO)N3)c1` showed an AC50 of 17.2 µM. `COc1cccc(-c2ccc3c(c2)[C@@H]2[C@@H](CCN2S(=O)(=O)c2ccccc2F)[C@H](CO)N3)c1` showed an AC50 of 10.9 µM. `CSCc1noc(CN2CCCC3(C2)CN(C)C(=O)O3)n1` (stereo not given) was tested, and the AC50 was > 39 µM (inactive). `Cc1cccc(-c2ccc([C@@H]3[C@H](CO)N4CCCCN(S(=O)(=O)c5ccccc5F)C[C@@H]34)cc2)c1` showed an AC50 of 19.7 µM. For `COc1cccc(-c2nc3c(s2)CN(S(=O)(=O)c2ccc(C)cc2)CC3)c1`, the AC50 was 34 µM. `CC(C)(C)OC(=O)Nc1cc(-c2cn[nH]c2C2CCCN(C(=O)OC(C)(C)C)C2)ccn1` (stereo not given) was tested, and the AC50 was > 20 µM (inactive). `CCCNC(=O)N1[C@H](C#N)[C@@H](c2ccc(-c3ccccc3F)cc2)[C@H]1CO` gave an AC50 of 31.9 µM. For `O=C(Nc1ccc(F)cc1)N1CC(=O)N2[C@H](CO)[C@H](c3ccc(-c4cccc(F)c4)cc3)[C@H]2C1`, the AC50 was 31.1 µM. `CN(C)C(=O)c1ccc(-c2ccc3c(c2)[C@@H]2[C@@H](CCN2C(=O)C2CCCC2)[C@H](CO)N3C)cc1` was tested, and the AC50 was 10.9 µM. In the case of `CS(=O)(=O)N1CC(=O)N2[C@@H](CO)[C@H](c3ccc(C#Cc4ccc(F)cc4)cc3)[C@@H]2C1`, the AC50 is reported as 28 µM. With `OC[C@H]1O[C@@H](n2cnc3c(NC4CCCC4)nc(Cl)nc32)[C@H](O)[C@@H]1O` the AC50 was > 39 µM (inactive). For `CC(C)C#Cc1ccc([C@H]2[C@@H](CO)N3C(=O)CN(S(=O)(=O)c4ccccc4)C[C@H]23)cc1`, the AC50 was > 39 µM (inactive). In the case of `COc1ccc(CN2CCO[C@H]3[C@H]2CC[C@H]3OCCCn2cccn2)cc1`, the AC50 is reported as > 39 µM (inactive). In the case of `CCc1c(C)sc2c1CCN(Cc1nc(-c3cc(C)ccc3C)oc1C)C2c1ccccc1` (stereo not given), the AC50 is reported as 16.9 µM. Work on `CCCCc1ccc(Nc2ncnc3c2cnn3-c2ccc(C)cc2C)cc1` yielded an AC50 of 11.6 µM. In the case of `COC(=O)[C@@H]1C[C@@H](N(C)C)CN1S(=O)(=O)c1c(C)ccc2nsnc12`, the AC50 is reported as > 39 µM (inactive). With `CC(C)N1CCC2(CC1)CC(COCC1CC1)N(c1ncccn1)C2` (stereo not given) the AC50 was 35.9 µM. `CCN(CC)CCO[C@H]1CC[C@@]2(C)C(=CC[C@@H]3[C@@H]2CC[C@]2(C)C(=O)CC[C@@H]32)C1` was tested, and the AC50 was > 39 µM (inactive). Work on `CC(C)(C)CC(C)(C)c1ccc(OCCOCC[N+](C)(C)Cc2ccccc2)cc1` yielded an AC50 of 14.1 µM. With `N#Cc1cccc(-c2ccc(C3[C@@H]4CN(Cc5ccccc5)C[C@H]3N4)cc2)c1` (stereo not given in full) the AC50 was 13.1 µM. With `COc1cc2c(cc1O)CC[C@@H]1[C@@H]2CC[C@]2(C)[C@@H](O)CC[C@@H]12` the AC50 was 11.2 µM and 5.79 µM. With `CC(C)NC(=O)N1CC(=O)N2[C@H](C1)[C@@H](c1ccc(/C=C/c3ccccc3)cc1)[C@@H]2CO` the AC50 was 17.9 µM. `Fc1cccc(CN2C[C@@H]3N[C@H](C2)C3c2ccc(/C=C/c3ccccc3)cc2)c1` (stereo not given in full) was tested, and the AC50 was 17.6 µM. Compound `O=C(c1ccc(F)cc1)N1CC(=O)N2[C@H](CO)[C@H](c3ccc(C#CCC4CCCC4)cc3)[C@@H]2C1` has an AC50 of 14.7 µM. For `O=C(Cc1ccc(Cl)cc1)N1CC2(CCN(Cc3ccc(C(F)(F)F)cc3)CC2)C1`, the AC50 was > 39 µM (inactive). In the case of `CCc1cc(C(=O)Nc2ccc(C)cc2-c2cc(C)[nH]n2)c2c(C)noc2n1`, the AC50 is reported as 18.2 µM. For `OC[C@@H]1Nc2ccc(-c3cccc(F)c3)cc2[C@H]2[C@@H]1CCN2Cc1ccc(F)cc1`, the AC50 was > 20 µM (inactive). `O=C(NCc1cccnc1)C1CC2CN(Cc3cccc(Cl)c3)CC1O2` (stereo not given) was tested, and the AC50 was 4.73 µM. `CC(C)Oc1ccc(NC(=O)c2nc3c(n2C(C)C)CCN(C(=O)c2ccccc2)C3)cc1` was tested, and the AC50 was 31.9 µM. `Cc1ccccc1-c1ccc(C2[C@@H]3CN(C(=O)c4ccc(F)cc4)C[C@H]2N3)cc1` (stereo not given in full) was tested, and the AC50 was > 42 µM (inactive). With `COc1ccccc1NC(=O)N1C[C@H](O)COC[C@@H]2O[C@@H](CC(=O)N3CCC(Cc4ccccc4)CC3)CC[C@H]21` the AC50 was > 39 µM (inactive). For `Cc1cnn(C(C)C(=O)N2CCc3[nH]nc(-c4ccc(F)c(F)c4)c3C2)c1` (stereo not given), the AC50 was > 39 µM (inactive). In the case of `COCC(=O)N1[C@@H](C#N)[C@H](c2ccc(C#CCC3CCCC3)cc2)[C@@H]1CO`, the AC50 is reported as 18.7 µM. `O=C(O)CC1CCC(c2ccc(-c3ccc(Nc4ccc(C(F)(F)F)nc4)cn3)cc2)CC1` (stereo not given) gave an AC50 of 17.2 µM. `Cc1ccc(C)c(S(=O)(=O)N2CCC3(CC2)c2ncc(-c4cccc(F)c4)n2CCN3C)c1` was tested, and the AC50 was > 20 µM (inactive). `O=C(NC1CCC12CCN(Cc1ccoc1)CC2)c1cnccn1` (stereo not given) was tested, and the AC50 was > 39 µM (inactive). For `N#C[C@H]1[C@@H](c2ccc(-c3cccc(F)c3)cc2)[C@@H](CO)N1C(=O)NC1CCCC1`, the AC50 was > 39 µM (inactive). Work on `O=S(=O)(c1ccccc1F)N1CC[C@H]2[C@H](CO)Nc3ccc(C4=CCCCC4)cc3[C@H]21` yielded an AC50 of 12.4 µM. For `O=C(c1cccn2c(-c3ccc(F)cc3)nnc12)N1CCC(O)(c2ccc(Cl)cc2)CC1`, the AC50 was > 39 µM (inactive). For `CC(C)NC(=O)[C@H]1C[C@H]2CCN(CCOCc3ccccc3)C[C@@H]2O1`, the AC50 was > 39 µM (inactive). `O=C(Nc1cccc(F)c1)C1CC12CCN(S(=O)(=O)c1ccccc1)C2` (stereo not given) gave an AC50 of 35.5 µM. `O=C(C[C@H]1CC[C@H]2[C@@H](COC[C@H](O)CN2Cc2ccc(Oc3ccccc3)cc2)O1)N1CCN(c2ccccc2)CC1` gave an AC50 of 27.6 µM. In the case of `CCCNC(=O)N1[C@H](C#N)[C@H](c2ccc(-c3ccccc3F)cc2)[C@H]1CO`, the AC50 is reported as 11.3 µM. `O=C(Nc1ccccc1F)N1C[C@@H]2N[C@H](C1)C2c1ccc(/C=C/c2ccccc2)cc1` (stereo not given in full) showed an AC50 of 18.6 µM. `O=S(=O)(c1cccc(F)c1)N1CC[C@@H]2[C@H]1c1cc(C#Cc3ccccc3F)ccc1N[C@@H]2CO` gave an AC50 of 17.3 µM. Compound `O=C(CC1CCC2(CC1)CCN(c1ncc(F)cn1)CC2)N1CC=CC1` has an AC50 of 21.7 µM. `COc1ccc(-c2ccc3c(c2)[C@@H]2[C@@H](CCN2C(=O)c2cccc(F)c2)[C@H](CO)N3)cc1` showed an AC50 of 11.3 µM. `COCCC(=O)C1Cc2nc(-c3ccccc3)sc2N1CC1CC1` (stereo not given) was tested, and the AC50 was 25.2 µM. In the case of `CCOC(=O)c1nn(Cc2ccccc2)c2c1CN(C(=O)CN1CC(c3ccccc3)CC1=O)CC2` (stereo not given), the AC50 is reported as 28.6 µM. In the case of `COc1cccc(S(=O)(=O)N2CCCCN3[C@H](C2)[C@H](c2ccc(C#CCC(C)C)cc2)[C@@H]3CO)c1`, the AC50 is reported as 11.9 µM and 15.5 µM. In the case of `O=C(Nc1cccc(F)c1)N1CCCCN2[C@H](CO)[C@H](c3ccc(C#Cc4cccnc4)cc3)[C@@H]2C1`, the AC50 is reported as 1.34 µM and 2.47 µM. Compound `Cc1cc(C(=O)Nc2ccc3c(c2)C(=O)N(C)[C@@H]2CC[C@@H](CC(=O)NCc4ccc(-c5ccccc5)cc4)O[C@@H]2CO3)no1` has an AC50 of 17.9 µM. `COc1cccc(-c2nc3c(s2)CN(S(=O)(=O)c2cc(C)ccc2C)CC3)c1` gave an AC50 of 7.12 µM. `COCCN1CCc2c(cnc(-c3cccnc3)c2C(=O)O)C1` was tested, and the AC50 was > 39 µM (inactive). Work on `N#Cc1cccc(-c2ccc3c(c2)[C@H]2[C@H](CCN2Cc2ccc4c(c2)OCO4)[C@@H](CO)N3)c1` yielded an AC50 of 15 µM. `CC(C)C#Cc1ccc([C@H]2[C@@H](C#N)N(C(=O)c3cccc(F)c3)[C@H]2CO)cc1` gave an AC50 of 26.4 µM. Work on `COc1ccccc1NC(=O)N1C[C@H](O)COC[C@@H]2O[C@H](CC(=O)N3CCC(Cc4ccccc4)CC3)CC[C@H]21` yielded an AC50 of 37.7 µM. `Cc1ccc(S(=O)(=O)N2CC[C@@H]3[C@@H](CO)Nc4ccc(-c5cccc(C(=O)N(C)C)c5)cc4[C@@H]32)cc1` gave an AC50 of 13.8 µM. Compound `C=CCNc1nnc(Cl)c2ccccc12` has an AC50 of 17.8 µM. `N#Cc1cccc(-c2ccc3c(c2)[C@H]2[C@H](CCN2C(=O)c2ccccc2F)[C@@H](CO)N3)c1` gave an AC50 of 15.1 µM. `COc1ccc(-c2nc3c(s2)CN(S(=O)(=O)c2cc(C)cc(C)c2)CC3)cc1` gave an AC50 of 5.99 µM. `COc1ccc(S(=O)(=O)N2CCCCN3[C@H](CO)[C@H](c4ccc(C#CCC(C)C)cc4)[C@H]3C2)cc1` was tested, and the AC50 was 8.14 µM and 12.7 µM. Work on `Cc1nc2c(cnn2-c2ccccc2)c(=O)n1-c1cccc2ccccc12` yielded an AC50 of 10.9 µM. With `COc1cccc(S(=O)(=O)N2CCCCN3[C@H](CO)[C@@H](c4ccc(C#CCC(C)C)cc4)[C@H]3C2)c1` the AC50 was 12.1 µM and 13.6 µM and 21.9 µM. With `Cc1ccc2c(c1)c(Cn1cc(-c3sccc3C)nn1)nn2C` the AC50 was 31.1 µM and 25.4 µM. `CCCNC(=O)N1[C@H](CO)[C@@H](c2ccc(-c3ccccc3F)cc2)[C@@H]1C#N` was tested, and the AC50 was > 39 µM (inactive). In the case of `O=C1CC(c2ccncc2)C2(CCN(Cc3nccs3)CC2)N1` (stereo not given), the AC50 is reported as > 39 µM (inactive). With `CCCC#Cc1ccc([C@@H]2[C@H]3CN(C(=O)Nc4cccc(F)c4)CC(=O)N3[C@H]2CO)cc1` the AC50 was 29.4 µM and 14.9 µM. `COCCNC(=O)C[C@@H]1C[C@@H]2CN(Cc3ccncc3)C[C@H]2O1` gave an AC50 of 29 µM. `CN1C(=O)c2cc(NC(=O)Cc3cccs3)ccc2OC[C@H]2O[C@H](CC(=O)NCc3ccc(-c4ccccc4)cc3)CC[C@@H]21` gave an AC50 of 29.4 µM. For `CC(C)NC(=O)N1CC[C@@H]2[C@H]1c1cc(-c3ccc(F)cc3)ccc1N(C)[C@@H]2CO`, the AC50 was > 20 µM (inactive). For `C/C=C/c1ccc([C@H]2[C@H](CO)N3CCCCN(S(=O)(=O)c4ccc(OC)cc4)C[C@@H]23)cc1`, the AC50 was 19.1 µM. Work on `COc1cccc(NC(=O)N2CC(=O)N3[C@H](CO)[C@H](c4ccc(C#CCC5CCCC5)cc4)[C@@H]3C2)c1` yielded an AC50 of 15.9 µM. `C[C@H](NC(=O)C[C@H]1CC[C@@H]2[C@@H](COc3ccc(NS(=O)(=O)c4ccc(Cl)cc4)cc3C(=O)N2C)O1)c1ccccc1` was tested, and the AC50 was 13.7 µM and 36.1 µM. In the case of `Cc1ccccc1-c1ccc([C@H]2[C@@H](CO)N3CCCCN(S(=O)(=O)Cc4ccccc4)C[C@H]23)cc1`, the AC50 is reported as 22.7 µM. `CN(C)C(=O)c1ccc(-c2ccc3c(c2)[C@@H]2[C@@H](CCN2C(=O)C2CCCC2)[C@@H](CO)N3C)cc1` was tested, and the AC50 was 17.5 µM. `C[C@H]1CN([C@@H](C)CO)C(=O)c2cccc(NC(=O)c3ccc(-c4nccs4)cc3)c2O[C@@H]1CN(C)C(=O)Nc1ccc(C(F)(F)F)cc1` was tested, and the AC50 was > 42 µM (inactive). Compound `COc1cccc(NC(=O)N2CC(=O)N3[C@H](C2)[C@H](c2ccc(C#CCC4CCCC4)cc2)[C@@H]3CO)c1` has an AC50 of 16.9 µM.
